Source: patent US20250170212A1, “COMPOSITIONS AND METHODS OF TREATING AMYOTROPHIC LATERAL SCLEROSIS (ALS) AND RELATED DISORDERS” (BIOINCEPT, LLC, priority 2022, published 2025)
Entries after “also recorded” stand apart in the source; their conditions may differ.

What was measured:
[1] = test system: transgenic SOD1^G93A mice; experiment: Hanging wire test (neuromuscular strength and coordination); assay type: in vivo, mouse; settings: weekly from day 0, drug groups with mGRPs
Experimental: To assess the motor capacity of our treatment groups, motor skills assays were performed. Starting at day −7 SOD1^G93A mice (n=30) were trained in hanging wire. Animals were trained 3 times a week in 2 days interval. Weekly measurements were performed starting at day 0 until the end of the experiment. Hanging wire test was used to test neuromuscular strength and coordination. Briefly, mice were hung on a wire and had to catch the wire both by upper and lower limbs as well as tangle it with tail in order to move the whole distance towards a stick (repeated three times for each mouse and obtaining an average). Maximum points (1.5 point) were given when mice performed the task. […] A poor score (<0.66 points) was given when a mouse was unable to move the whole distance and the amount of time for which mice were able to hang on the wire (1 sec=0.016 points) was counted. […]
All quantifications were performed including the manual cell counts in a blinded manner. The NeuN and Ibal were counted as positive cells in the ROI (see above) as previously reported. The number of cells was determined by unbiased counting of positive cells. […] Differences between groups were analyzed using a repeated measure ANOVA model with a fixed effect for the group, of the time and a random intercept for the mouse. […] The statistical significance at p<0.05 was then determined.

[2] = test system: transgenic SOD1^G93A mice; experiment: Survival of ALS mice (Kaplan-Meier) after mGRPs transplantation with immunomodulatory drugs; assay type: in vivo, mouse; settings: n=6 per group, mGRPs into cisterna magna, drug groups all with mGRPs: sPIF 1 mg/kg day -1 to 14, Tac 1 mg/kg daily to day 56, CB 25 mg/kg days 0, 2, 4, 6
Source text: B6.Cg-Tg (SOD1^G93A) 1Gur/J (Animalab, The Jackson Laboratory, Bar Harbor, ME, USA, RRID: IMSR JAX:004435) and SCID (Animalab, Charles River Laboratory, Wilmington, MA, USA, RRID: IMSR_JAX:001303) mice were obtained from JaxMice. SOD1^G93A animals were divided randomly into 5 groups and SCID animals were used as control.
mGRP cells were received as a gift from the Department of Radiology and Radiological Science, Johns Hopkins School of Medicine (Baltimore, MD, USA). Cells were isolated as previously described from spinal cords dissected from Luc+/PLP/GFP+ mice between E12.5 and E14 stage. […] The viability of the mGRPs was assessed with trypan blue exclusion and only suspensions with over 70% of cell viability were used for transplantation. […]
All quantifications were performed including the manual cell counts in a blinded manner. The NeuN and Ibal were counted as positive cells in the ROI (see above) as previously reported. The number of cells was determined by unbiased counting of positive cells. […] Differences between groups were analyzed using a repeated measure ANOVA model with a fixed effect for the group, of the time and a random intercept for the mouse. In a second, more explorative, approach for each group the time when the physical activity was first measured below a certain threshold was determined. […]

[3] = test system: experimental autoimmune encephalomyelitis; settings: murine EAE models; cited from earlier work

MVRIKPGSANKPSDD [sPIF]
motor performance in hanging wire test (early motor impairment) [1]: significant delay of early motor impairment; also recorded: significant improvement of motor outcome
mice survival (Kaplan-Meier) [2]: seemed to be superior compared to other immune modulatory drugs; also recorded: seems superior but did not reach statistical significance
paralysis and myelination [3]: reverse and prevent paralysis and restore myelination
